Source: US5744340A, “Expression of human inducible nitric oxide synthase” (Schering Corporation, priority 1995, dated 1998)
pEC50, pIC50, pKd: −log10 of the molar value. Several values for one entry are separate records, joined by “and”; a condition that tells them apart may be missing. Equal entries are not always repeated. Where two headings read alike, the source gives them in different places. Values belong to the compound of their own block, whether it stands above or below them.

How the values were obtained:
human iNOS [1] = molecular target: T1, human iNOS (Homo sapiens, UniProt P35228); assay: iNOS activity: conversion of radioactive arginine to citrulline; format: biochemical; settings: for NOS activity without calmodulin coexpression: expression in E. coli; for dependence of activity on iNOS cofactors: crude cell extract
T1 construct: A full length iNOS cDNA was assembled from the products of the four PCR reactions; made in house; host or cells: E. coli JS5
T1 sequence (P35228 whole entry): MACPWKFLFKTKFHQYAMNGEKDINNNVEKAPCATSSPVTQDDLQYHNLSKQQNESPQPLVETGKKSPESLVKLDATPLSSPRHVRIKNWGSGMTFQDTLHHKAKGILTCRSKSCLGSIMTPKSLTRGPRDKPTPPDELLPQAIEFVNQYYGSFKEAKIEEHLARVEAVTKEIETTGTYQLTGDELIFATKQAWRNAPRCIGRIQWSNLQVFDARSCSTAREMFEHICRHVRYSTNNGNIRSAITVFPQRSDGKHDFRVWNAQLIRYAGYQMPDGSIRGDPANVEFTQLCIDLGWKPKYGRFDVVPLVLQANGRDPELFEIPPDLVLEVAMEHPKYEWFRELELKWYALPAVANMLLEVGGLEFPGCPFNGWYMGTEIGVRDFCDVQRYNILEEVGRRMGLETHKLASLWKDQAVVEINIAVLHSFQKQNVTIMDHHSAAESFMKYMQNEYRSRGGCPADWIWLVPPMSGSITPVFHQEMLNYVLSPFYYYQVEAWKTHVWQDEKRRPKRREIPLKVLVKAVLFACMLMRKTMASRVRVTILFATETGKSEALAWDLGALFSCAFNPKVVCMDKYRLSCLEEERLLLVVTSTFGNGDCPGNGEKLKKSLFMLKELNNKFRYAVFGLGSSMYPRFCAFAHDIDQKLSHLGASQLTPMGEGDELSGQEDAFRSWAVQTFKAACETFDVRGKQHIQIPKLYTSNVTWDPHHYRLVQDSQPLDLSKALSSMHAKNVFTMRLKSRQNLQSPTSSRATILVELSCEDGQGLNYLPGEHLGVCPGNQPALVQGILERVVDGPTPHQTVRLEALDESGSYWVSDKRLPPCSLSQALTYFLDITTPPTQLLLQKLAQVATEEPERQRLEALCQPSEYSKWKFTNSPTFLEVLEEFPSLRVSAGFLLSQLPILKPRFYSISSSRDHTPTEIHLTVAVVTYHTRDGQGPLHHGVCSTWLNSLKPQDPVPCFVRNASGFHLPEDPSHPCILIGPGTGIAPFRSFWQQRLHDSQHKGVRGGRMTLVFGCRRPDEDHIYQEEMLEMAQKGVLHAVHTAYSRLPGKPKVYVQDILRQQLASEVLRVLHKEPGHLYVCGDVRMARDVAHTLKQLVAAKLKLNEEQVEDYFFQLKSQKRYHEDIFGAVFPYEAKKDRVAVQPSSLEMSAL

human iNOS [2] = molecular target: T1, human iNOS; assay: retention of iNOS activity on overnight storage; format: physicochemical
Procedure: Breakage of cells and the ammonium sulfate fractionations were done in the presence of 10 μM FAD, 10 μM FMN, 2 μM THB, and 2 μM hemin. Leaving these cofactors out of the breaking buffer had no effect on the level of iNOS activity. […] Flavins were omitted after the 40% ammonium sulfate fractionation since they bind tightly to Q Sepharose. CHAPS detergent was included for the Q Sepharose column because iNOS fractionated poorly from the bulk of the protein in its absence. The yield of iNOS from about 20 liters of cells (32 g starting protein in the crude extract) was about 30-40 mg.

rat bNOS [3] = settings: cited from earlier work
rat bNOS [4] = settings: Klatt et al., 1994, cited from earlier work
murine iNOS = settings: 1991, cited from earlier work

effect of addition on iNOS activity (human iNOS [1]; 1 mM EGTA): unaffected
Compound: O=C(O)CN(CCOCCOCCN(CC(=O)O)CC(=O)O)CC(=O)O [EGTA, reference compound]

Compound: human iNOS: human inducible nitric oxide synthase expressed in E. coli, coexpressed with human calmodulin
Specific Activity (human iNOS [1]; 40% ammonium sulfate ppt): 19,600 units/mg
specific activity compared with murine iNOS (human iNOS [1]; E. coli expressed iNOS): approximately the same specific activity
level of activity with coexpression relative to without coexpression (human iNOS [1]; FIG. 2, average of three assays): > 100 fold
Specific Activity (human iNOS [1]; Q Sepharose pool): 149,000 units/mg
Specific Activity (human iNOS [1]; S300 pool): 317,000 units/mg
Specific Activity (human iNOS [1]; cell lysate): 2,420 units/mg
activity with coexpression of calmodulin (human iNOS [1]; crude extract): 3000-5000 units/mg
NOS activity without calmodulin coexpression (human iNOS [1]): barely detectable above background
NOS activity without calmodulin coexpression (human iNOS [1]; listed as iNOS): barely detectable above the E. coli negative control
specific activity of iNOS in the crude cell supernatant (human iNOS [1]; iNOS amount estimated from SDS gel against BSA control): 500-1000 nmoles citrulline/min/mg of iNOS
specific activity of the most pure material (human iNOS [1]; leading edge of the S300 column, >95% pure): 450,000 units/mg
activity after overnight storage (human iNOS [2]; absence of cofactors (FAD, FMN, THB, hemin)): half of the activity was lost
activity after overnight storage (human iNOS [2]; presence of cofactors (10 μM FAD, 10 μM FMN, 2 μM THB, 2 μM hemin)): complete activity was retained

Compound: hemin [reference compound]
dependence of activity on iNOS cofactors (human iNOS [1]): no dependence

Compound: [Ca+2].[Cl-].[Cl-] [CaCl2, reference compound]
effect of addition on iNOS activity (human iNOS [1]; 1 mM CaCl2): unaffected

Compound: rat bNOS: rat brain or neuronal nitric oxide synthase
specific activity of rat bNOS (rat bNOS [3]): 270,000 units/mg

dependence of activity on iNOS cofactors (human iNOS [1]): no dependence
Compound: Cc1cc2nc3c(=O)[nH]c(=O)nc-3n(C[C@H](O)[C@H](O)[C@H](O)COP(=O)(O)OP(=O)(O)OC[C@H]3O[C@@H](n4cnc5c(N)ncnc54)[C@H](O)[C@@H]3O)c2cc1C [FAD, reference compound]

dependence of enzyme activity on added THB (human iNOS [1]; E. coli expressed iNOS): completely dependent
pEC50 (human iNOS [1]; FIG. 4, cells broken without THB, varying THB in assay, read-out: half-maximal activity (THB titration)): ~6.92 and 6.92
effect of THB on NOS activity (human iNOS [1]; cells broken in the absence of THB, THB added): restores NOS activity
Compound: C[C@H](O)[C@H](O)[C@H]1CNc2nc(N)[nH]c(=O)c2N1 [THB, tetrahydrobiopterin, reference compound]
pKd (rat bNOS [4]; read-out: Kd for THB binding to rat bNOS): ~7.40
pKd (rat bNOS [4]; in the absence of 100 μM arginine, read-out: binding constant of THB for bNOS): 6.60
pKd (rat bNOS [4]; in the presence of 100 μM arginine, read-out: binding constant of THB for bNOS): 7.43

Compound: N=C(N)NN [aminoguanidine, reference compound]
IC50's on E. coli-derived compared with 293 cell-derived iNOS (human iNOS [1]; FIG. 5, 1 μM labeled arginine, inhibitor 0.01 to 10,000 μM): within two-fold of each other on both sources of iNOS

Compound: murine iNOS: purified murine inducible nitric oxide synthase (Stuehr et al., 1991)
specific activity of purified murine iNOS (murine iNOS; Stuehr et al.): 1000 nmol/min/mg
specific activity of murine iNOS (murine iNOS; pure murine iNOS, b61: Stuehr et al.): 1×10^6 units/mg and 1,000,000 units/mg

Compound: N=C(N)NCCC[C@H](N)C(=O)O [arginine, L-arginine, reference compound]
Km for arginine compared with mammalian derived iNOS (human iNOS [1]; E. coli expressed iNOS): same Km

dependence of activity on iNOS cofactors (human iNOS [1]): no dependence
Compound: Cc1cc2nc3c(=O)[nH]c(=O)nc-3n(C[C@H](O)[C@H](O)[C@H](O)COP(=O)(O)O)c2cc1C [FMN, reference compound]

effect of addition of calmodulin on NOS activity (human iNOS [1]; FIG. 2, coexpression extracts, calmodulin 10 μg/ml, 1 μM undiluted labeled arginine): no effect
effect of addition on iNOS activity (human iNOS [1]; calcium +10 mg/ml calmodulin): unaffected
effect of calmodulin in the NOS assay (human iNOS [1]; iNOS expressed in E. coli without coexpression of calmodulin): no effect
Compound: calmodulin

Compound: c1c[nH]cn1 [imidazole, reference compound]
pIC50 (human iNOS [1]): 3.92
